# Values joined by “and” are separate entries in the source; they are usually repeats but may differ in a detail not shown here. Identical values can stand only once. Inconclusive results and toxic doses are left out.
# Tested on: BDF1 mice, P388 leukemia ip, median survival T/C
# Test: NCI In Vivo Anticancer Drug Screen. Data for tumor model P388 Leukemia (intraperitoneal) in B6D2F1 (BDF1) mice
# Conditions: endpoint: median survival time, higher = longer survival
# How it was run: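 Compound-treated tumour-bearing mice were compared with vehicle-treated controls. Survival was recorded, and the value is the treated-group measurement divided by the control-group measurement (T/C).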
# [1] = dose: 25.0 mg/kg/injection, schedule: Q01DX009 (ip), vehicle: saline with Tween-80
# [2] = dose: 50.0 mg/kg/injection, schedule: Q01DX009 (ip), vehicle: saline with Tween-80
# [3] = dose: 100.0 mg/kg/injection, schedule: Q01DX009 (ip), vehicle: saline with Tween-80
# [4] = dose: 100.0 mg/kg/injection, schedule: Q04DX003 (ip), vehicle: saline with Tween-80
# [5] = dose: 200.0 mg/kg/injection, schedule: Q01DX009 (ip), vehicle: saline with Tween-80
# [6] = dose: 200.0 mg/kg/injection, schedule: Q04DX003 (ip), vehicle: saline with Tween-80
# [7] = dose: 400.0 mg/kg/injection, schedule: Q01DX009 (ip), vehicle: saline with Tween-80
# [8] = dose: 400.0 mg/kg/injection, schedule: Q04DX003 (ip), vehicle: saline with Tween-80
# [9] = dose: 100.0 mg/kg/injection, schedule: Q01DX001 (ip), vehicle: saline with Tween-80
# [10] = dose: 200.0 mg/kg/injection, schedule: Q01DX001 (ip), vehicle: saline with Tween-80
# [11] = dose: 400.0 mg/kg/injection, schedule: Q01DX001 (ip), vehicle: saline with Tween-80
# [12] = dose: 6.25 mg/kg/injection, schedule: Q01DX009 (ip), vehicle: saline with Tween-80
# [13] = dose: 12.5 mg/kg/injection, schedule: Q01DX009 (ip), vehicle: saline with Tween-80
# [14] = dose: 6.25 mg/kg/injection, schedule: Q04DX003 (ip), vehicle: saline
# [15] = dose: 12.5 mg/kg/injection, schedule: Q04DX003 (ip), vehicle: saline
# [16] = dose: 25.0 mg/kg/injection, schedule: Q04DX003 (ip), vehicle: saline
# [17] = dose: 100.0 mg/kg/injection, schedule: Q01DX009 (ip), vehicle: saline
# [18] = dose: 200.0 mg/kg/injection, schedule: Q01DX009 (ip), vehicle: saline
compound,measurement,setting,value
CC(C)C(C(=O)c1ccccc1)c1ccccc1 (stereo not given),T/C,[1],95 % of control
same,T/C,[2],109 % of control
same,T/C,[3],100 % of control
same,T/C,[4],100 % of control
same,T/C,[5],100 % of control
same,T/C,[6],118 % of control
same,T/C,[7],100 % of control
same,T/C,[8],100 % of control
O=C1C(N2CC2)=C(N2CCCC(O)C2)C(=O)C(N2CC2)=C1N1CCCC(O)C1 (stereo not given),T/C,"dose: 1.0 mg/kg/injection, schedule: Q01DX009 (ip), vehicle: saline",195 % of control
same,T/C,"dose: 2.0 mg/kg/injection, schedule: Q01DX009 (ip), vehicle: saline",99 % of control
CCOC(=O)C(N)CSC(c1ccccc1)(c1ccccc1)c1ccccc1 (stereo not given),T/C,"dose: 9.6 mg/kg/injection, schedule: Q04DX003 (ip), vehicle: saline",95 % of control
same,T/C,"dose: 14.0 mg/kg/injection, schedule: Q04DX003 (ip), vehicle: saline",100 % of control
same,T/C,"dose: 33.0 mg/kg/injection, schedule: Q04DX003 (ip), vehicle: saline",122 % of control
same,T/C,"dose: 50.0 mg/kg/injection, schedule: Q04DX003 (ip), vehicle: saline",155 % of control
same,T/C,"dose: 100.0 mg/kg/injection, schedule: Q04DX003 (ip), vehicle: saline",175 % of control
same,T/C,"dose: 132.0 mg/kg/injection, schedule: Q04DX003 (ip), vehicle: saline",181 % of control
same,T/C,"dose: 200.0 mg/kg/injection, schedule: Q04DX003 (ip), vehicle: saline",181 % of control and 215 % of control
same,T/C,"dose: 300.0 mg/kg/injection, schedule: Q04DX003 (ip), vehicle: saline",163 % of control
CCOC(O)C(Cl)(Cl)Cl (stereo not given),T/C,[9],100 % of control
same,T/C,[10],100 % of control
same,T/C,[11],100 % of control
OC1OC2COC(c3ccccc3)OC2C(O)C1O (stereo not given),T/C,"dose: 75.0 mg/kg/injection, schedule: Q01DX009 (ip), vehicle: saline with Tween-80",107 % of control
same,T/C,"dose: 150.0 mg/kg/injection, schedule: Q01DX009 (ip), vehicle: saline with Tween-80",94 % of control
same,T/C,"dose: 300.0 mg/kg/injection, schedule: Q01DX009 (ip), vehicle: saline with Tween-80",91 % of control
NC(=O)c1c(N)sc2c1CCCC2,T/C,[12],86 % of control
same,T/C,[13],86 % of control
same,T/C,[1],95 % of control
COc1cccc(/C=N/NC(=O)c2cc(C)nc3ccc(Br)cc23)c1O,T/C,[2],103 % of control
same,T/C,[3],103 % of control
same,T/C,[5],100 % of control
O=C(O)C1CCC2CCCCC2[N-]1.O=C(O)C1CCC2CCCCC2[N-]1.[Cu+2] (stereo not given),T/C,[14],100 % of control
same,T/C,[15],90 % of control
same,T/C,[16],100 % of control
CC1(C)N=C(c2ccc3ccccc3c2)CC1C#N (stereo not given),T/C,[9],100 % of control
same,T/C,[10],100 % of control
same,T/C,[11],95 % of control
CN1CCC(OC(N)=O)CC1,T/C,[17],109 % of control
same,T/C,"dose: 100.0 mg/kg/injection, schedule: Q04DX003 (ip), vehicle: alcohol",100 % of control
same,T/C,"dose: 100.0 mg/kg/injection, schedule: Q04DX003 (ip), vehicle: saline sonified",100 % of control
same,T/C,"dose: 132.0 mg/kg/injection, schedule: Q01DX008 (ip), vehicle: saline",95 % of control
same,T/C,"dose: 132.0 mg/kg/injection, schedule: Q01DX009 (ip), vehicle: saline",113 % of control
same,T/C,"dose: 200.0 mg/kg/injection, schedule: Q01DX008 (ip), vehicle: saline",104 % of control
same,T/C,[18],109 % of control
same,T/C,"dose: 200.0 mg/kg/injection, schedule: Q04DX003 (ip), vehicle: alcohol",100 % of control
same,T/C,"dose: 200.0 mg/kg/injection, schedule: Q04DX003 (ip), vehicle: saline sonified",104 % of control
same,T/C,"dose: 300.0 mg/kg/injection, schedule: Q01DX008 (ip), vehicle: saline",104 % of control
same,T/C,"dose: 300.0 mg/kg/injection, schedule: Q01DX009 (ip), vehicle: saline",113 % of control
same,T/C,"dose: 400.0 mg/kg/injection, schedule: Q01DX009 (ip), vehicle: saline",95 % of control
same,T/C,"dose: 400.0 mg/kg/injection, schedule: Q04DX003 (ip), vehicle: alcohol",118 % of control
same,T/C,"dose: 400.0 mg/kg/injection, schedule: Q04DX003 (ip), vehicle: saline sonified",100 % of control
CCCCCCCCCC(=O)NO,T/C,"dose: 100.0 mg/kg/injection, schedule: Q01DX001 (ip), vehicle: saline sonified",100 % of control
same,T/C,"dose: 200.0 mg/kg/injection, schedule: Q01DX001 (ip), vehicle: saline sonified",100 % of control
same,T/C,"dose: 400.0 mg/kg/injection, schedule: Q01DX001 (ip), vehicle: saline sonified",100 % of control
CC(=O)N1N=C(N)SC1c1ccc(Cl)c(Cl)c1 (stereo not given),T/C,[2],113 % of control
same,T/C,[3],113 % of control
CC(=O)N1C(=O)NC(=O)C1(C)c1ccco1 (stereo not given),T/C,[1],122 % of control
same,T/C,[2],112 % of control
same,T/C,[3],103 % of control and 122 % of control
same,T/C,[4],109 % of control and 113 % of control
same,T/C,[5],92 % of control and 115 % of control
same,T/C,[6],104 % of control and 122 % of control
same,T/C,[7],87 % of control
same,T/C,[8],90 % of control
c1cc(Nc2ccncc2)ccn1,T/C,[12],96 % of control
same,T/C,[14],115 % of control
same,T/C,[13],104 % of control
same,T/C,[15],92 % of control
same,T/C,[1],108 % of control
same,T/C,[16],107 % of control
O=P(N1CCCCC1)(N1CC1)N1CC1,T/C,"dose: 2.2 mg/kg/injection, schedule: Q01DX009 (ip), vehicle: saline",103 % of control
same,T/C,"dose: 3.3 mg/kg/injection, schedule: Q01DX009 (ip), vehicle: saline",118 % of control
same,T/C,"dose: 7.5 mg/kg/injection, schedule: Q01DX009 (ip), vehicle: saline",185 % of control
same,T/C,[16],225 % of control
CCCN(CCC)CCSC(=S)NCCOC,T/C,[2],100 % of control
same,T/C,[3],113 % of control
COc1ccc(C2C=C(C)Oc3c2c(=O)oc2ccccc32)cc1OC (stereo not given),T/C,"dose: 6.25 mg/kg/injection, schedule: Q04DX003 (ip), vehicle: water",98 % of control
same,T/C,"dose: 12.5 mg/kg/injection, schedule: Q01DX009 (ip), vehicle: water",91 % of control
same,T/C,"dose: 12.5 mg/kg/injection, schedule: Q04DX003 (ip), vehicle: water",104 % of control
same,T/C,"dose: 25.0 mg/kg/injection, schedule: Q04DX003 (ip), vehicle: water",100 % of control
same,T/C,"dose: 50.0 mg/kg/injection, schedule: Q04DX003 (ip), vehicle: water",100 % of control
same,T/C,"dose: 100.0 mg/kg/injection, schedule: Q04DX003 (ip), vehicle: water",88 % of control and 96 % of control
same,T/C,"dose: 200.0 mg/kg/injection, schedule: Q04DX003 (ip), vehicle: water",94 % of control
same,T/C,"dose: 400.0 mg/kg/injection, schedule: Q04DX003 (ip), vehicle: water",90 % of control
CCCCN1CCN(c2ccc([N+](=O)[O-])c3no[n+]([O-])c23)CC1,T/C,"dose: 16.0 mg/kg/injection, schedule: Q04DX003 (ip), vehicle: saline with Tween-80",121 % of control
same,T/C,"dose: 32.0 mg/kg/injection, schedule: Q04DX003 (ip), vehicle: saline with Tween-80",150 % of control
same,T/C,"dose: 64.0 mg/kg/injection, schedule: Q04DX003 (ip), vehicle: saline with Tween-80",100 % of control
CN=C1N[N+]2=C(C)CSCC2(C)S1 (stereo not given),T/C,"dose: 50.0 mg/kg/injection, schedule: Q01DX009 (ip), vehicle: saline",100 % of control
same,T/C,[17],100 % of control
same,T/C,[18],97 % of control
CCCSCC(C)C,T/C,[4],100 % of control
same,T/C,[6],109 % of control
same,T/C,[8],90 % of control
O=C(Nc1cc(Cl)cc(Cl)c1)C(Cl)Cl,T/C,"dose: 50.0 mg/kg/injection, schedule: Q01DX010 (ip), vehicle: carboxymethylcellulose (CMC)",95 % of control
same,T/C,"dose: 100.0 mg/kg/injection, schedule: Q01DX010 (ip), vehicle: carboxymethylcellulose (CMC)",110 % of control
same,T/C,"dose: 200.0 mg/kg/injection, schedule: Q01DX010 (ip), vehicle: carboxymethylcellulose (CMC)",105 % of control

# From PubChem BioAssay AID328 (DTP/NCI, 2004)
